In general, EC50 refers to the concentration that produces a half-maximal response. Usually IC50 stands for the point on the concentration scale where inhibition reaches its midpoint. A low value points to greater potency.

This experiment has as its system CEM cells HIV-1 protection, formazan growth assay. The experiment in a line: NCI AIDS Antiviral Assay. To be noted: for IC50: measured here: growth of uninfected CEM cells. The method, boiled down: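 Category rules: moderately active means at least 50% protection on retest, and confirmed active means 100% protection reproducibly. The underlying data came from a formazan growth assay in HIV-1-infected CEM cells.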

The source made the active and inactive calls.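 The calls were made as follows: active = compounds giving half or more protection of infected cells from virus-caused growth loss, again on retest; inactive = the rest.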

On to `COC(=O)C(CC(=O)Nc1ccc(Cl)c(Cl)c1)C(=O)C(=O)Nc1ccc(Cl)c(Cl)c1` (centres undefined), for which the EC50 is greater than 52.5 µM and the concentration for half-maximal inhibition (IC50) was greater than 52.5 µM.

As to `C[n+]1c2cc(N)ccc2cc2ccc(N)cc21` (tested in a mixture with another compound), the EC50 is greater than 200 µM and the IC50 was found to be 0.316 µM.

For `COc1ccc(CNc2nc3ccccc3nc2-c2cccs2)cc1OC`, the EC50 is greater than 19.1 µM and the half-maximal inhibitory concentration (IC50) was found to be 17 µM.

Regarding `CN(c1ccccc1)S(=O)(=O)c1ccc([N+](=O)[O-])cc1`, the EC50 was greater than 200 µM and the IC50 is 110 µM.

For `COC(=O)CC1C(COC(C)=O)OC(n2cc(C)c(=O)[nH]c2=O)C1OC(C)=O` (centres undefined), the outcome was inactive.

`COc1ccc(/C=C/C(=N/NC(=O)N/N=C(/C=C/c2ccc(OC)cc2)C(C)(C)CN2CCCCC2)C(C)(C)CN2CCCCC2)cc1`: the EC50 is greater than 200 µM and the IC50 was 2.09 µM.

For the compound `O=c1c2ccccc2nc2ccc3c(Cl)[nH][nH]c3c12`, the result was inactive.

For `N#Cc1c(-c2ccccc2)c(-c2ccccc2)nn(CC(=O)O)c1=O`, the EC50 was greater than 759 µM and the IC50 was 47.9 µM.

`Cc1nc2cn3c(c2c(=O)[nH]1)CCCCC3`: the EC50 is greater than 200 µM and the IC50 was greater than 200 µM.

As to `O=C1NC(N2CCCCC2)=N/C1=C\c1ccco1`, the EC50 is greater than 200 µM and the IC50 is greater than 200 µM.

`CN1CCCC1=NC#N`: the EC50 is greater than 200 µM and the IC50 was greater than 200 µM.

On to `O=C1CC(c2ccc(O)c(O)c2)c2c(cc(O)c3c2O[C@H](c2ccc(O)c(O)c2)[C@H](O)C3)O1` (some centres undefined), for which the EC50 is greater than 200 µM and the IC50 was 31.6 µM.

With `CCC(C)[C@H](NC(=O)C1CCCN1C[C@H](O)[C@H](Cc1ccccc1)NC(=O)[C@@H](CC(N)=O)NC(=O)OCc1ccccc1)C(=O)N[C@H](Cc1ccccc1)C(=O)NCCCC[C@@H]1NC(=O)[C@H](CC(C)C)N(C)C(=O)[C@H](C(C)C)NC(=O)[C@H](CC(C)C)N(C)C(=O)[C@@H](CO)N(C)C(=O)[C@H](CC)NC(=O)[C@H]([C@H](O)C(C)C)N(C)C(=O)[C@H](C(C)C)N(C)C(=O)[C@H](CC(C)C)N(C)C(=O)[C@H](CC(C)C)N(C)C(=O)[C@@H](C)NC1=O` (some centres undefined), the EC50 was 0.501 µM and the IC50 is 67.6 µM.

Consider `COc1c2cc([N+](=O)[O-])cc1CN(C(=O)C(F)(F)F)CCOCCN(C(=O)C(F)(F)F)C2`, for which the EC50 was greater than 200 µM and the IC50 is greater than 200 µM.

Regarding `CCCCC[C@@H]1CCCC2N=C(CCCCC3OCCO3)CCC21` (some centres undefined), the outcome was inactive.

`C[n+]1c(/C=C/c2ccc3c(c2)OCO3)ccc2ccccc21`: the EC50 is greater than 200 µM and the IC50 amounted to 5.89 µM.

Turning to `COc1cc2c(c(OC)c1OC)C1=NNC(=O)C1(C)CC2` (centres undefined), the EC50 was greater than 617 µM and the half-maximal inhibitory concentration (IC50) came to 479 µM.

On to `CO/N=C/c1cc(NC(=S)c2ccoc2C)ccc1Cl`, for which the EC50 is 0.0575 µM and the IC50 is 29.5 µM.

Take `CON(C)C(=O)C(C)NC(=O)OC(C)(C)C` (centres undefined): the EC50 is greater than 155 µM and the IC50 was greater than 155 µM.

`O=c1cc(Nc2cccc(O)c2)[nH]c(=O)[nH]1`: the outcome was inactive.

Turning to `CCN(CC)CCN(CC)CC(=O)Nc1ccccc1Cl`, the EC50 is greater than 200 µM and the IC50 was greater than 200 µM.

Regarding `CCOC(=O)/C(=C\c1ccc([N+](=O)[O-])cc1)P(=O)(OCC)OCC`, the EC50 is greater than 20.4 µM and the IC50 was found to be 10.2 µM.

For `Cc1cccc2c1NC(c1c(C)[nH]c3ccccc13)C2` (centres undefined), the outcome was inactive.

Regarding `Cn1c(=O)ccc2c1nc1ccccc1[n+]2[O-]`, the EC50 is greater than 60.3 µM and the IC50 was greater than 60.3 µM.

For the compound `CSc1ccc(Nc2cc(=O)[nH]c(=O)[nH]2)cc1`, the EC50 is greater than 200 µM and the 50% inhibitory concentration (IC50) is greater than 200 µM.

`Nc1ncc(N)c(N)n1`: the EC50 is greater than 200 µM and the IC50 worked out at 132 µM.

As to `COc1ccc([N+](=O)[O-])c2c(NCCC[N+](C)(C)[O-])c3ccccc3nc12`, the EC50 is greater than 200 µM and the half-inhibitory concentration (IC50) worked out at 3.09 µM.

The values are drawn from PubChem BioAssay AID179 (DTP/NCI, 2004).
